The values below are quoted from earlier work in patent US10925925B2, “Therapy of atherosclerosis, primary biliary cirrhosis and NRLP3 inflammasome-associated disease by HTCP inhibitors” (MYR GmbH, priority 2017, dated 2021).

Data set [1] concerns patients with PBC. The settings on record: PBC patients treated with UDCA.
Data set [2] has as its system patients with PBC. The settings on record: month 12, placebo arm 10%.

Structures are written as SMILES. Like-named read-outs stand apart in the source and are kept apart here.

For the compound `C[C@H](CCC(=O)O)[C@H]1CC[C@H]2[C@@H]3[C@@H](O)C[C@@H]4C[C@H](O)CC[C@]4(C)[C@H]3CC[C@]12C` [UDCA, ursodeoxicholic acid], the “patients who do not achieve adequate biochemical response” value in data set [1] was “about 40%”.

`CC[C@H]1[C@@H](O)[C@@H]2[C@H](CC[C@]3(C)[C@@H]([C@H](C)CCC(=O)O)CC[C@@H]23)[C@@]2(C)CC[C@@H](O)C[C@@H]12` [OCA, obeticholic acide]: the entries for the “patients achieving the primary endpoint (predominantly reduction in ALP)” value in data set [2] (OCA 10 mg arm) and in data set [2] (OCA titration arm) were 47% and 46%, respectively.
